Laboratory results reported in US20250134869A1, “Pyrrolo[2,3-d]pyrimidinyl, Pyrrolo[2,3-b]pyrazinyl and Pyrrolo[2,3-d]pyridinyl Acryla-mides” (Pfizer Inc, priority 2021, published 2025).
Read-outs that look alike come from different tables or passages of the source.

Biological target: JAK3 enzyme (Homo sapiens (Human), UniProt P52333)
Experiment: JAK Caliper Enzyme Assay at 4 μM or 1 mM ATP
Format: biochemical
Procedure: JAK Caliper Enzyme Assay at […] or 1 mM ATP
Test article was solubilized in dimethyl sulfoxide (DMSO) to a stock concentration of 30 mM. An 11-point half log dilution series was created in DMSO with a top concentration of 600 μM. […] The compound plates were diluted 1 to 60 resulting in a top final assay compound concentration of 10 μM and a 2% DMSO concentration.
Test article and assay controls were added to a 384-well plate. Reaction mixtures contained 20 mM HEPES, pH 7.4, 10 mM magnesium chloride, 0.01% bovine serum albumin (BSA), 0.0005% Tween […] or 1 mM ATP and […] peptide substrate. […] The assays were initiated by the addition 1 nM JAK3 enzyme and were incubated at room temperature 75 minutes for JAK3. Enzyme concentrations and incubation times were optimized for each new enzyme preps and were modified slightly over time to ensure 20%-30% phosphorylation. The assays were stopped with a final concentration of 10 mM EDTA, 0.1% Coating Reagent and 100 mM HEPES, pH=7.4. The assay plates were placed on a Caliper Life Science Lab Chip 3000 (LC3000) instrument, and each well was sampled using appropriate separation conditions to measure the unphosphorylated and phosphorylated peptide.

[1] = read-out: JAK3 (4 μM ATP) IC50, 4 μM ATP
[2] = read-out: JAK3 (1 mM ATP) IC50, 1 mM ATP

Chain of JAK3 enzyme (P52333 whole entry, species assumed): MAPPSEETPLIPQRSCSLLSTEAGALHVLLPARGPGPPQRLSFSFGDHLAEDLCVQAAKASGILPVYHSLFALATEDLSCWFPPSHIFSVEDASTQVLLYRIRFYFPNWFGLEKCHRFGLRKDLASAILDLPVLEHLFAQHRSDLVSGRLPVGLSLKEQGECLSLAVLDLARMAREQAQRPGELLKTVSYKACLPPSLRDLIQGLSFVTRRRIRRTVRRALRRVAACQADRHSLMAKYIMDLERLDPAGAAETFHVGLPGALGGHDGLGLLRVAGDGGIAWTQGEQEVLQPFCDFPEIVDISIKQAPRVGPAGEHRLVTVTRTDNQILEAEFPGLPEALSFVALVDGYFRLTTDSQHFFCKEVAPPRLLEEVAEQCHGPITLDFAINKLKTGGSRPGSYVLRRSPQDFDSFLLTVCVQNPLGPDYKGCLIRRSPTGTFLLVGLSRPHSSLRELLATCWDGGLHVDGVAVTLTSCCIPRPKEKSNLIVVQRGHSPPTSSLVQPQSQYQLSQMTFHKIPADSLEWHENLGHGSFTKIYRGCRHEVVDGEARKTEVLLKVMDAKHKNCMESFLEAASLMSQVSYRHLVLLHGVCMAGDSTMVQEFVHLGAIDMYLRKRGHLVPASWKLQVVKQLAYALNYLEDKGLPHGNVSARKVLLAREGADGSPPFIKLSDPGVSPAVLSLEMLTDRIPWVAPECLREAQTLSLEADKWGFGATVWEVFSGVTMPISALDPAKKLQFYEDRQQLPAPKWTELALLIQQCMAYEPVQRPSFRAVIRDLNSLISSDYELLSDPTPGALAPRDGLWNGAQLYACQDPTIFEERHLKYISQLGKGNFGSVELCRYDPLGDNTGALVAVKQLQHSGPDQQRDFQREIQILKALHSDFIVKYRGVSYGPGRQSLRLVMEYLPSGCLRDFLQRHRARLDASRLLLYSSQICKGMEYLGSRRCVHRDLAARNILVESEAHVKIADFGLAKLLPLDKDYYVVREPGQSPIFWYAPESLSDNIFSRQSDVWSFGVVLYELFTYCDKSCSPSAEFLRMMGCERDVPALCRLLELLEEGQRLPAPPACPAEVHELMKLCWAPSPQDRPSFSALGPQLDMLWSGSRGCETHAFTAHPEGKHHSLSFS

IC50 [1] | IC50 [2] | Compound
6.6 nM | 814 nM | C=CC(=O)N1CCN(c2cnc3[nH]cc(C(=O)NC(C)C)c3n2)[C@H](C2CC2)C1 [Example 309, 2-[(2R)-4-acryloyl-2-cyclopropylpiperazin-1-yl]-N-(propan-2-yl)-5H-pyrrolo[2,3-b]pyrazine-7-carboxamide]
< 0.1 nM | 9 nM | C=CC(=O)N1CCC(Nc2cnc3[nH]cc(C(=O)NC4CC(F)C4)c3n2)CC1 (stereo not drawn) [Example 243, 2-[(1-acryloylpiperidin-4-yl)amino]-N-(3-fluorocyclobutyl)-5H-pyrrolo[2,3-b]pyrazine-7-carboxamide]
0.5 nM | 44.6 nM | C=CC(=O)N1CC[C@H](Nc2cnc3[nH]cc(C(=O)NC(C)C)c3n2)[C@H](OC)C1 [Example 317, 2-{[(3R,4S)-1-acryloyl-3-methoxypiperidin-4-yl]amino}-N-(propan-2-yl)-5H-pyrrolo[2,3-b]pyrazine-7-carboxamide]
1.1 nM | 95.6 nM | C=CC(=O)N1CC(Nc2cnc3[nH]ccc3n2)C1 [Example 337, 1-(3-((5H-Pyrrolo[2,3-b]pyrazin-2-yl)amino)azetidin-1-yl)prop-2-en-1-one]
0.2 nM | 7.8 nM | C=CC(=O)N1CCC(Nc2cnc3[nH]cc(C(=O)NC(C)C4CC4)c3n2)CC1 (stereo not drawn) [Example 288, 2-[(1-acryloylpiperidin-4-yl)amino]-N-(1-cyclopropylethyl)-5H-pyrrolo[2,3-b]pyrazine-7-carboxamide]
0.3 nM | 6.6 nM | C=CC(=O)N1CCC(Nc2cnc3[nH]cc(C(=O)N[C@@H](C)COC)c3n2)CC1 [Example 277, 2-[(1-acryloylpiperidin-4-yl)amino]-N-[(2S)-1-methoxypropan-2-yl]-5H-pyrrolo[2,3-b]pyrazine-7-carboxamide]
0.3 nM | 13.6 nM | C=CC(=O)N1CCC(Nc2cnc3[nH]cc(C(=O)NC(C)(C)C)c3n2)CC1 [Example 266, 2-[(1-acryloylpiperidin-4-yl)amino]-N-tert-butyl-5H-pyrrolo[2,3-b]pyrazine-7-carboxamide]
1.1 nM | 89.8 nM | C=CC(=O)N1CCN(c2cnc3[nH]cc(C(=O)NC(C)C)c3n2)C[C@@H]1C [Example 295, 2-[(3S)-4-acryloyl-3-methylpiperazin-1-yl]-N-(propan-2-yl)-5H-pyrrolo[2,3-b]pyrazine-7-carboxamide]
0.2 nM | 8.2 nM | C=CC(=O)N1CCC(Nc2cnc3[nH]cc(C(=O)N[C@H]4CC[C@H](F)C4)c3n2)CC1 [Example 247, 2-[(1-acryloylpiperidin-4-yl)amino]-N-[(1S,3S)-3-fluorocyclopentyl]-5H-pyrrolo[2,3-b]pyrazine-7-carboxamide]
1.2 nM | 49.4 nM | C=CC(=O)N1CC[C@@H](Nc2cnc3[nH]cc(C(=O)NC(C)C)c3n2)[C@@H](OC)C1 [Example 302, 2-{[(3S,4R)-1-acryloyl-3-methoxypiperidin-4-yl]amino}-N-(propan-2-yl)-5H-pyrrolo[2,3-b]pyrazine-7-carboxamide]
0.2 nM | 8.8 nM | C=CC(=O)N1CCC(Nc2cnc3[nH]cc(C(=O)NCC(C)C)c3n2)CC1 [Example 272, 2-[(1-acryloylpiperidin-4-yl)amino]-N-(2-methylpropyl)-5H-pyrrolo[2,3-b]pyrazine-7-carboxamide]

The next lines start with the molecule.

Compound | IC50 [1] | IC50 [2]
C=CC(=O)N1C[C@H](Nc2ncnc3[nH]ccc23)[C@H]2CC[C@@H]1C2 [Example 127, 1-((1R,4R,5S)-4-(7H-pyrrolo[2,3-d]pyrimidin-4-ylamino)-2-azabicyclo[3.2.1]octan-2-yl)prop-2-en-1-one] | 190 nM | > 10000 nM
C=CC(=O)N1CCC(Nc2cnc3[nH]cc(-c4cnc(N5CCOCC5)nc4)c3n2)CC1 [Example 208, 1-[4-({7-[2-(morpholin-4-yl)pyrimidin-5-yl]-5H-pyrrolo[2,3-b]pyrazin-2-yl}amino)piperidin-1-yl]prop-2-en-1-one] | 5.9 nM | 576 nM
C=CC(=O)N1CCC(Nc2cnc3[nH]cc(-c4cnc(OC)nc4)c3n2)CC1 [Example 210, 1-(4-{[7-(2-methoxypyrimidin-5-yl)-5H-pyrrolo[2,3-b]pyrazin-2-yl]amino}piperidin-1-yl)prop-2-en-1-one] | 0.4 nM | 45.4 nM
C=CC(=O)N1C[C@@H](Nc2ncnc3[nH]ccc23)[C@@H]2CC[C@H]1C2 [Example 126, 1-((1S,4S,5R)-4-(7H-pyrrolo[2,3-d]pyrimidin-4-ylamino)-2-azabicyclo[3.2.1]octan-2-yl)prop-2-en-1-one] | 602 nM | > 10000 nM
C=CC(=O)N1CCC[C@@H](Nc2ncnc3[nH]cc(CC)c23)C1 [Example 44, 1-{(3R)-3-[(5-ethyl-7H-pyrrolo[2,3-d]pyrimidin-4-yl)amino]piperidin-1-yl}prop-2-en-1-one] | 0.3 nM | 168 nM
C=CC(=O)N1CCC[C@@H](Nc2ncnc3[nH]cc(CC(C)C)c23)C1 [Example 39, 1-[(3R)-3-{[5-(2-methylpropyl)-7H-pyrrolo[2,3-d]pyrimidin-4-yl]amino}piperidin-1-yl]prop-2-en-1-one] | > 10000 nM | –
C=CC(=O)N1CC[C@H](F)[C@@H](Nc2ncnc3[nH]ccc23)C1 [Example 4, 1-((3S,4S)-3-((7H-pyrrolo[2,3-d]pyrimidin-4-yl)amino)-4-fluoropiperidin-1-yl)prop-2-en-1-one] | 0.5 nM | 32.1 nM
C/C=C/C(=O)N1CCC[C@@H](N(C)c2ncnc3[nH]cc(CCOC)c23)C1 [Example 135, (2E)-1-[(3R)-3-{[5-(2-Methoxyethyl)-7H-pyrrolo[2,3-d]pyrimidin-4-yl](methyl)amino}-piperidin-1-yl]but-2-en-1-one] | > 10000 nM | –
C=CC(=O)N1CCC[C@@H](Nc2ncnc3[nH]cc(Cc4ccc(O)cc4)c23)C1 [Example 137, 1-[(3R)-3-{[5-(4-Hydroxybenzyl)-7H-pyrrolo[2,3-d]pyrimidin-4-yl]amino}piperidin-1-yl]prop-2-en-1-one] | 0.3 nM | –
C=CC(=O)N1CCC(Oc2cnc3[nH]cc(-c4ccc(S(C)(=O)=O)cc4)c3n2)CC1 [Example 229, 1-[4-({7-[4-(methylsulfonyl)phenyl]-5H-pyrrolo[2,3-b]pyrazin-2-yl}oxy)piperidin-1-yl]prop-2-en-1-one] | 7.1 nM | 745 nM
C=CC(=O)N1CCC(Oc2cnc3[nH]cc(-c4ccnc(F)c4)c3n2)CC1 [Example 222, 1-(4-{[7-(2-fluoropyridin-4-yl)-5H-pyrrolo[2,3-b]pyrazin-2-yl]oxy}piperidin-1-yl)prop-2-en-1-one] | 1.1 nM | 125 nM
C=CC(=O)N1CCC(Nc2cnc3[nH]cc(-c4ccc(F)nc4)c3n2)CC1 [Example 207, 1-(4-{[7-(6-fluoropyridin-3-yl)-5H-pyrrolo[2,3-b]pyrazin-2-yl]amino}piperidin-1-yl)prop-2-en-1-one] | 0.3 nM | 28.9 nM
C=CC(=O)N1CCC(Oc2cnc3[nH]cc(-c4c(C)noc4C)c3n2)CC1 [Example 224, 1-(4-{[7-(3,5-dimethyl-1,2-oxazol-4-yl)-5H-pyrrolo[2,3-b]pyrazin-2-yl]oxy}piperidin-1-yl)prop-2-en-1-one] | 17.6 nM | 1540 nM
C=CC(=O)N1C[C@H](Nc2ncnc3[nH]ccc23)C[C@H](OC)C1 [Example 19, 1-((3R,5S)-3-((7H-Pyrrolo[2,3-d]pyrimidin-4-yl)amino)-5-methoxypiperidin-1-yl)prop-2-en-1-one] | 0.6 nM | 67.6 nM
C=CC(=O)N1CCC[C@@H](Nc2ncnc3[nH]cc(-c4cccnc4)c23)C1 [Example 26, 1-[(3R)-3-{[5-(pyridin-3-yl)-7H-pyrrolo[2,3-d]pyrimidin-4-yl]amino}piperidin-1-yl]prop-2-en-1-one] | 1.6 nM | 153 nM
C=CC(=O)N(C)C1CCN(c2cnc3[nH]cc(C(=O)NC(C)C)c3n2)CC1 [Example 169, 2-{4-[acryloyl(methyl)amino]piperidin-1-yl}-N-(propan-2-yl)-5H-pyrrolo[2,3-b]pyrazine-7-carboxamide] | 42.8 nM | 4730 nM
C=CC(=O)NC1CN(c2cnc3[nH]cc(C(=O)NC(C)C)c3n2)C1 [Example 173, 2-[3-(acryloylamino)azetidin-1-yl]-N-(propan-2-yl)-5H-pyrrolo[2,3-b]pyrazine-7-carboxamide] | 8.1 nM | 692 nM
C=CC(=O)N[C@H]1CC[C@@H](Nc2cnc3[nH]cc(C(=O)NC(C)C)c3n2)CC1 [Example 182, 2-{[cis-4-(acryloylamino)cyclohexyl]amino}-N-(propan-2-yl)-5H-pyrrolo[2,3-b]pyrazine-7-carboxamide] | 11.4 nM | 975 nM
C=CC(=O)N1CCC[C@@H](Nc2ncnc3[nH]cc(C(=O)N4CCCC4)c23)C1 [Example 146, 1-[(3R)-3-{[5-(pyrrolidin-1-ylcarbonyl)-7H-pyrrolo[2,3-d]pyrimidin-4-yl]amino}pipendin-1-yl]prop-2-en-1-one] | 957 nM | –
C/C=C/C(=O)N1CCC[C@@H](Nc2ncnc3[nH]cc(CC(C)(C)O)c23)C1 [Example 159, (2E)-1-[(3R)-3-{[5-(2-Hydroxy-2-methylpropyl)-7H-pyrrolo[2,3-d]pyrimidin-4-yl]amino}piperidin-1-yl]but-2-en-1-one] | > 10000 nM | –
